{"source": "paper PMC8249445", "about": "“Complex effects of macrolide venturicidins on bacterial F-ATPases likely contribute to their action as antibiotic adjuvants” (Scientific Reports, 2021)", "key": {"[1]": {"target": "T1, FOF1-ATPase of WT E. coli membranes (Escherichia coli, UniProt P68699)", "T1 construct": "To express haploid levels of EcFOF1 containing WT-ε or ε88-stop; expressed in transfected cells; host or cells: E. coli strain XH1 (chromosomal atpC deletion) carrying pMBε1; inverted membrane vesicles", "experiment": "biochemical", "type": "biochemical", "conditions": "for ATPase rate, Early / ATPase rate, Late / Late/early ratio: 10 µM ventA final; for pKi: VentA at half-max. inhibition (Ki), early inhibition", "procedure": "ATP hydrolysis is enzyme-coupled to conversion of NADH to NAD^+, which results in decreased light absorbance; thus, a larger rate of ATP hydrolysis is indicated by a steeper downward slope. The system also rapidly regenerates ATP, minimizing the concentration of product ADP during the assay. Unless noted, assays were preincubated to establish a steady state hydrolysis rate (see “Methods”) before the ‘zero’ point of measurements.\nPlasmid pXH302S, which encodes the WT atpC gene and expresses near haploid levels of the ε subunit, was subjected to fusion PCR mutagenesis to construct plasmid pMBε1, with an N-terminal affinity tag ([…]) added prior to the initial Met residue. To express the ε88-stop subunit, an AfeI-ScaI restriction fragment of WT pMBε1 was replaced by the analogous fragment from pH6ε88-stop[46]. To express haploid levels of EcFOF1 containing WT-ε or ε88-stop, the appropriate version of pMBε1 was transformed into E. coli strain XH1, which has a chromosomal deletion of the atpC gene for ε[54]. For these transformed strains, cultures were grown and inverted membrane vesicles (IMV) were prepared according to [55]. WT ε, with the same N-terminal His6-tag, was over-expressed from pH6ε and purified as described.\nATP hydrolysis by membrane vesicles was assayed spectrophotometrically[57] at 30 °C using an open-chamber, diode array spectrophotometer (Hewlett Packard 8453 UV–Vis) as described in[29]. The assay medium (1 ml per assay) contained 20 mM Mops/Tris, pH 8.0, 0.2 mM EDTA, 10 mM CH3COOK, 1 mM ATP, 3.2 mM Mg(CH3COO)2, 1 mM phosphoenolpyruvate, at least 0.3 mM NADH, 0.1 mg/ml pyruvate kinase, 0.1 mg/ml lactate dehydrogenase, 5 mM KCN, and 5 μM carbonyl cyanide 4-(trifluoromethoxy)-phenylhydrazone. […] To avoid interference of this increase with the changes of ATPase activity induced by venturicidins, unless indicated otherwise, measurement of ATPase activities were started 60 min after addition of membranes to the complete assay medium. […] To keep absorbance between 1.5 and 2 units after the 60-min preincubation, up to 0.2 mM additional NADH was added to the assay medium. In figures displaying activity traces, some traces are shifted vertically for visual clarity."}, "E. coli": {"system": "E. coli", "set-up": "method as in PMID 32424122", "conditions": "complex growth medium; cited from earlier work"}, "mitoFOF1": {"system": "mitoFOF1", "set-up": "method as in PMID 124668", "conditions": "cited from earlier work"}, "[2]": {"conditions": "preincubation +MgATP, no ventA, selenite"}, "[3]": {"conditions": "preincubation No MgATP, +ventA (trace 2), 40 mM selenite"}, "[4]": {"conditions": "WT + 6 μM azide (Fig. 2C), best fit of early rates"}, "[5]": {"conditions": "WT + 38.5 mM selenite (Fig. 2B), best fit of early rates"}}, "note": "pKi: −log10 of the molar value.", "data": [{"compound": "CCC(=O)C(C)C(O)C(C)CC(C)C1OC(=O)CC2(O)CC=C(C)C(O2)C(C)=CCCCC(OC2CC(OC(N)=O)C(O)C(C)O2)C=CC(C)CC1C", "note": "(stereo not drawn) [ventA, venturicidin A]", "values": [{"measurement": "Late rate (last 3 min of assay)", "setting": "[1]; 9.5 μM ventA, 38.5 mM selenite (Fig. 5A #3)", "value": 2.7, "unit": "U/mg"}, {"measurement": "Rate during 100 s immediately before adding ε", "setting": "[1]; 9.5 μM ventA, 38.5 mM selenite (Fig. 5A trace #4)", "value": 2.5, "unit": "U/mg"}, {"measurement": "ATPase rate, Early", "setting": "[1]; [2]", "value": 1.27, "unit": "U/mg"}, {"measurement": "ATPase rate, Late", "setting": "[1]; [2]", "value": 2.97, "unit": "U/mg"}, {"measurement": "Late/early ratio", "setting": "[1]; [2]", "value": 2.34}, {"measurement": "ATPase rate, Early", "setting": "[1]; [3]", "value": 1.22, "unit": "U/mg"}, {"measurement": "ATPase rate, Late", "setting": "[1]; [3]", "value": 2.93, "unit": "U/mg"}, {"measurement": "Late/early ratio", "setting": "[1]; [3]", "value": 2.40}, {"measurement": "Decrease of initial ATPase rate", "setting": "[1]; 30 min preincubation with 10 μM ventA without ATP, selenite present", "value": "about 40%"}, {"measurement": "pKi", "setting": "[1]; WT + 6 μM azide (Fig. 2C)", "value": 5.77}, {"measurement": "pKi", "setting": "[1]; WT + 38.5 mM selenite (Fig. 2B)", "value": 6.64}, {"measurement": "pKi", "setting": "[1]; WT, alone (Fig. 2A)", "value": 6.15}, {"measurement": "ATPase at saturating ventA (y0)", "setting": "[1]; [4]", "value": "36% (± 4)"}, {"measurement": "VentA-sensitive ATPase (y1)", "setting": "[1]; [4]", "value": "106% (± 5)"}, {"measurement": "ATPase at saturating ventA (y0)", "setting": "[1]; [5]", "value": "53% (± 1)"}, {"measurement": "VentA-sensitive ATPase (y1)", "setting": "[1]; [5]", "value": "46% (± 2)"}, {"measurement": "Sensitivity to immediate inhibition, selenite vs azide", "setting": "[1]; WT EcFOF1, MgADP-inhibited state minimized by selenite vs increased by azide", "value": "~ sevenfold"}, {"measurement": "Increase of early Ki value by azide", "setting": "[1]; WT, 6 µM azide vs none", "value": 2.4, "unit": "fold"}, {"measurement": "ATPase at saturating ventA (y0)", "setting": "[1]; WT, alone (Fig. 2A), best fit of early rates", "value": "47% (± 2)"}, {"measurement": "VentA-sensitive ATPase (y1)", "setting": "[1]; WT, alone (Fig. 2A), best fit of early rates (within 1 min after adding ventA)", "value": "80% (± 5)"}, {"measurement": "Reduction of Ki for early inhibition by selenite", "setting": "[1]; WT, with vs without selenite", "value": "threefold"}, {"measurement": "Immediate increase in ATPase rate, first minute post-addition", "setting": "[1]; lower ventA concentration (Fig. 1, trace 2), no effector", "value": 11, "unit": "%"}, {"measurement": "inhibition at 10 µM", "setting": "[1]; read-out: Additional time-dependent inhibition", "value": "~25", "unit": "%"}, {"measurement": "ATPase activity during the last 3 min of assays", "setting": "[1]; ventA added after 0.1 mM DCCD (trace 3, 15 μM ventA), no selenite", "value": "0.49 (± 0.06) U/mg"}, {"measurement": "ATPase activity during the last 3 min of assays", "setting": "[1]; ventA added before 0.1 mM DCCD (trace 2, 10 μM ventA), no selenite", "value": "0.53 (± 0.05) U/mg"}, {"measurement": "ATPase activity during the last 3 min of assays", "setting": "[1]; ventA after 0.1 mM DCCD (trace 3, 15 μM ventA), 38.5 mM selenite", "value": 2.84, "unit": "U/mg"}, {"measurement": "ATPase activity during the last 3 min of assays", "setting": "[1]; ventA before 0.1 mM DCCD (trace 2, 10 μM ventA), 38.5 mM selenite", "value": 2.93, "unit": "U/mg"}, {"measurement": "Adjuvant action", "setting": "E. coli", "value": "minimal adjuvant action"}, {"measurement": "Stimulation of solubilized ATPase", "setting": "mitoFOF1; detergent-solubilized mitoFOF1", "value": "up to 3 fold"}, {"measurement": "Inhibition of membrane ATPase", "setting": "mitoFOF1; mitoFOF1 in membranes", "value": 95, "unit": "%"}]}]}
